From US20190358181A1, “METHODS FOR AUTISM SPECTRUM DISORDER PHARMACOTHERAPY” (priority 2017, published 2019)

System: males with ASD
Experiment: Autism Treatment Evaluation Checklist (ATEC), parent questionnaire, SAT-1 trial
Type: in vivo, human
Method: Two observational examinations were performed by a clinician at 3 time points: baseline (56±8 days; mean±SEM; before the infusion), 2-days post-infusion, and 6-weeks post-infusion. The two examiner-based metrics were the Autism Diagnostic Observation Schedule, 2nd edition (ADOS-2) with video and audio files recorded on 3 cameras, and the Expressive One Word Picture Vocabulary Testing (EOWPVT). Both of these observational metrics were administered by a trained and certified examiner using approved test materials. Three standardized questionnaires were completed by parents at 3 time points: baseline, 7-days post-infusion, and 6-weeks post-infusion. The three standardized questionnaires completed by parents were the 58-question Aberrant Behavior Checklist (ABC), the 75-item Autism Treatment Evaluation Checklist (ATEC), and the 33-item repetitive behavior questionnaire (RBQ). Parents were asked to complete these three instruments with reference to how their child behaved in the previous 7 days. At the end of the six weeks, we included a 24-question Clinical Global Impression (CGI) questionnaire (FIG. 16). In addition, parents were asked to list the 3 top behaviors or symptoms that they observed to be most changed over the previous 6-weeks. To minimize the misinterpretation of natural day-to-day variations in symptoms, parents were asked to mark a symptom as changed in the 6-week CGI only if it had lasted for at least 1 week.
For the test dose, 50 mg of suramin hexasodium (Bayer Pharmaceuticals, Inc.) in 5 mL of saline (experimental arm, 5 patients), or 5 mL of saline only (control arm, 5 patients) were given by slow intravenous (IV) push over 3 minutes, followed by a 10 mL flush of saline. One hour after the test dose, vital signs were repeated and a single infusion of either suramin (20 mg/kg, minus the 50 mg test dose, in 50 mL, up to a maximum of 1 gram) or saline (50 mL IV) was given over 30 minutes, followed by a 10 mL flush of saline.
Behavioral and neurological effects of treatment were assessed primarily by the examiner-based ADOS-2 protocol scores and standardized vocabulary testing (Expressive One Word Picture Vocabulary Test, EOWPVT), with secondary evaluation via parent-based assessments (Aberrant Behavior Checklist (ABC) scores, Autism Treatment Evaluation Checklist (ATEC) scores, Clinical Global Impression of Improvement (CGI) scores, and Repetitive Behavior Questionnaire (RBQ) scores). See General Methods for information related to behavioral test administration. Prior to the study, diagnosis of each of the enrolled participants was confirmed by ADOS-2 comparison scores of ≥7, and non-verbal IQ was tested by Leiter-3 examination. Examiner-based outcomes (ADOS and EOWPVT) were assessed at 2-days and 6-weeks after the infusion. Parent-based outcomes (ABC, ATEC, CGI, and RBQ) were assessed at 7-days and 6-weeks after the infusion. To minimize the effects of natural behavioral variability, the parents were instructed to mark a behavior as changed only if it was persistently changed for at least 1 week.
Each child was used as their own control to examine before and after treatment effects from Example 1 in a paired t-test design for the analysis of the ADOS, EOWPVT, ABC, ATEC, RBQ (FIGS. 4-11 show individual analyses), and blood and urine safety data (FIGS. 2 and 3 show individual analyses). Paired, non-parametric analysis was by Wilcoxon signed-rank sum test. Categorical data, such as the presence or absence of adverse events or historical symptoms was analyzed by Fisher's exact test. Two-way ANOVA (treatment×time), with Sidak post hoc correction, was used to analyze the 6-week summaries captured by the ADOS, CGI, and additional blood and urine safety analysis. Cohen's d—calculated as the mean difference of the paired, within-subject scores before and after treatment, divided by the standard deviation of the differences—was used as an estimate of effect size.

[1] = ATEC Language, 7 days after treatment
[2] = ATEC Language, 45 days after treatment
[3] = ATEC Sociability, 7 days after treatment
[4] = ATEC Total, 7 days after treatment

Cc1ccc(C(=O)Nc2ccc(S(=O)(=O)O)c3cc(S(=O)(=O)O)cc(S(=O)(=O)O)c23)cc1NC(=O)c1cccc(NC(=O)Nc2cccc(C(=O)Nc3cc(C(=O)Nc4ccc(S(=O)(=O)O)c5cc(S(=O)(=O)O)cc(S(=O)(=O)O)c45)ccc3C)c2)c1 [Suramin, suramin]
Difference from baseline (mean ± sd) [1]: −2.2 ± 1.5 | d (Cohen's d) [1]: 1.4 | Difference from baseline (mean ± sd) [2]: −2.0 ± 1.4 | d (Cohen's d) [2]: 1.4 | Difference from baseline (mean ± sd) [3]: −3.6 ± 2.6 | d (Cohen's d) [3]: 1.4 | Difference from baseline (mean ± sd) [4]: −10 ± 7.7 | d (Cohen's d) [4]: 1.3
